# According to the kinase profiling compilation of Christmann-Franck et al. (2016):
# What was measured:
# Experiment in all cases: radiometric filter-binding kinase assay, Kinase HotSpot
# Settings in all cases: compound 0.5 µM; ATP 10 µM
# [1] = biological target: JAK3 JH1 JH2 (human) (UniProt P52333)
# [2] = biological target: RAF1 (human) (UniProt P04049)
# [3] = biological target: NTRK2 (human) (UniProt Q16620)
# [4] = biological target: ADRBK2 (human) (UniProt P35626)
# [5] = biological target: STK16 (human) (UniProt O75716)
# [6] = biological target: IRAK4 (human) (UniProt Q9NWZ3)
# [7] = biological target: MARK4 (human) (UniProt Q96L34)
# [8] = biological target: HIPK3 (human) (UniProt Q9H422)
# [9] = biological target: MKNK2 (human) (UniProt Q9HBH9)
# [10] = biological target: SGK2 (human) (UniProt Q9HBY8)
# [11] = biological target: CLK4 (human) (UniProt Q9HAZ1)
# [12] = biological target: GRK6 (human) (UniProt P43250)
# [13] = biological target: CDK4 CCND1 (human) (UniProt P24385+P11802)
# [14] = biological target: CSNK1D (human) (UniProt P48730)
# [15] = biological target: MAP3K11 (human) (UniProt Q16584)
# [16] = biological target: MAP3K9 (human) (UniProt P80192)
# [17] = biological target: NEK7 (human) (UniProt Q8TDX7)
# [18] = biological target: WNK2 (human) (UniProt Q9Y3S1)
# [19] = biological target: PRKACA (human) (UniProt P17612)
# [20] = biological target: PRKD1 (human) (UniProt Q15139)
# [21] = biological target: MAP4K4 (human) (UniProt O95819)
# [22] = biological target: TYRO3 (human) (UniProt Q06418)
# [23] = biological target: SRPK2 (human) (UniProt P78362)
# [24] = biological target: BRSK2 (human) (UniProt Q8IWQ3)
# [25] = biological target: ULK2 (human) (UniProt Q8IYT8)
# [26] = biological target: NUAK1 (human) (UniProt O60285)
# [27] = biological target: TSSK2 (human) (UniProt Q96PF2)
# [28] = biological target: JAK2 JH1 JH2 (human) (UniProt O60674)
# [29] = biological target: NTRK1 (human) (UniProt P04629)
# [30] = biological target: PIM2 (human) (UniProt Q9P1W9)
# [31] = biological target: CDK5 CDK5R1 p35 (human) (UniProt Q00535+Q15078)
# [32] = biological target: FGR (human) (UniProt P09769)
# [33] = biological target: CAMK2D (human) (UniProt Q13557)
# [34] = biological target: MAPK14 (human) (UniProt Q16539)
# [35] = biological target: GSK3B (human) (UniProt P49841)
# [36] = biological target: ACVR1B (human) (UniProt P36896)
# [37] = biological target: PIM1 (human) (UniProt P11309)
# [38] = biological target: CHEK1 (human) (UniProt O14757)
# [39] = biological target: DAPK2 (human) (UniProt Q9UIK4)
# [40] = biological target: PASK (human) (UniProt Q96RG2)
# [41] = biological target: FRK (human) (UniProt P42685)
# [42] = biological target: NLK (human) (UniProt Q9UBE8)
# Sequence of CAMK2D (human) (Q13557 whole entry, looked up): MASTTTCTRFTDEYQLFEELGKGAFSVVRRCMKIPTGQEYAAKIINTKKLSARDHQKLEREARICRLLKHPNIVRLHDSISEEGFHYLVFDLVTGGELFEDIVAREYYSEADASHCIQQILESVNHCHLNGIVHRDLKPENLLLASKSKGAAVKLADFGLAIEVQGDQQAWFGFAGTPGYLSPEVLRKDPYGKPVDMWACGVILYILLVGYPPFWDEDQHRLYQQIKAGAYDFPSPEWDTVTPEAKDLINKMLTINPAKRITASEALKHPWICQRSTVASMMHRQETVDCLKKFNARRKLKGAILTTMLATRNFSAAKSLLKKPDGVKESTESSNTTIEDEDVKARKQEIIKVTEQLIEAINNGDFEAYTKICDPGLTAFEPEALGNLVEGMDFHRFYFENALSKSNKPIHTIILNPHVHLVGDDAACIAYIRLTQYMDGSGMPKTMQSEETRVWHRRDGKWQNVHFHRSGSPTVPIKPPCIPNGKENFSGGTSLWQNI
# Sequence of MAP3K9 (human) (P80192 whole entry, looked up): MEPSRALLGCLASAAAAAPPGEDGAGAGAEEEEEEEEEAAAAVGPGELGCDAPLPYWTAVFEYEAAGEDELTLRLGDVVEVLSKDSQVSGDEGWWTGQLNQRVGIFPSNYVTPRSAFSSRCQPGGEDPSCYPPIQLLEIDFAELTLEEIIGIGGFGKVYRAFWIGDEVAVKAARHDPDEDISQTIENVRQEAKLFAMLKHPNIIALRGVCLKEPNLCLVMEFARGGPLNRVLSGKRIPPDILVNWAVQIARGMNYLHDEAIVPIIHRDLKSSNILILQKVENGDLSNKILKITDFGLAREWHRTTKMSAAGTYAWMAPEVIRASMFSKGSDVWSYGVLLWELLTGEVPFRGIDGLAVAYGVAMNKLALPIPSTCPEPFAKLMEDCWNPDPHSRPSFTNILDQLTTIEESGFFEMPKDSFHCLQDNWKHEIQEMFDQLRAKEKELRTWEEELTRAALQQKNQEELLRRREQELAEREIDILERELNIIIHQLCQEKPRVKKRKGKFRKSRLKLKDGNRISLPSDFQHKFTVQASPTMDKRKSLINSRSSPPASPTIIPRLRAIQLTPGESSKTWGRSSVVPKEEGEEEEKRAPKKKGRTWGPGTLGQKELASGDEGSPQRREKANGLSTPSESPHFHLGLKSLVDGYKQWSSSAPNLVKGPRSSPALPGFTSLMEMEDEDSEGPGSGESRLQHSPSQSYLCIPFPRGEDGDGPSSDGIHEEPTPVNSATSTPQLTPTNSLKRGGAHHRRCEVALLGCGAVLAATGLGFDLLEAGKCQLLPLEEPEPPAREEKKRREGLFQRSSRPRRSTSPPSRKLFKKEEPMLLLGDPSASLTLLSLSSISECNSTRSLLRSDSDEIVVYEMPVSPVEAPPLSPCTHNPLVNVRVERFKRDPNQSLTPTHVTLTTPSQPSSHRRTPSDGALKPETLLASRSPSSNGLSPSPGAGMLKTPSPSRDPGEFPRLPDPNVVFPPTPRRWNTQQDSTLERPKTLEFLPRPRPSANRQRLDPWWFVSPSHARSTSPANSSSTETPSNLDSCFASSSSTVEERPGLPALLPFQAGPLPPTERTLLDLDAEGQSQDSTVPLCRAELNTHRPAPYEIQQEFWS
# Sequence of TSSK2 (human) (Q96PF2 whole entry, looked up): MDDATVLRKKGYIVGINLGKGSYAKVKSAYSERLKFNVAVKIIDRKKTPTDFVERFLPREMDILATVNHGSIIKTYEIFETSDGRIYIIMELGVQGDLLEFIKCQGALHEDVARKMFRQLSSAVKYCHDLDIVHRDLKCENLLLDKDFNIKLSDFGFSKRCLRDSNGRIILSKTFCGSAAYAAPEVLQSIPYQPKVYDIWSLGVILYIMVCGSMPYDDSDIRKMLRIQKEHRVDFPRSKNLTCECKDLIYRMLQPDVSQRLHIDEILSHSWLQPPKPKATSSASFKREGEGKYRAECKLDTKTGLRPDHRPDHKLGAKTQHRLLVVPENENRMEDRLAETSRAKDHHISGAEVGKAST
# Sequence of NUAK1 (human) (O60285 whole entry, looked up): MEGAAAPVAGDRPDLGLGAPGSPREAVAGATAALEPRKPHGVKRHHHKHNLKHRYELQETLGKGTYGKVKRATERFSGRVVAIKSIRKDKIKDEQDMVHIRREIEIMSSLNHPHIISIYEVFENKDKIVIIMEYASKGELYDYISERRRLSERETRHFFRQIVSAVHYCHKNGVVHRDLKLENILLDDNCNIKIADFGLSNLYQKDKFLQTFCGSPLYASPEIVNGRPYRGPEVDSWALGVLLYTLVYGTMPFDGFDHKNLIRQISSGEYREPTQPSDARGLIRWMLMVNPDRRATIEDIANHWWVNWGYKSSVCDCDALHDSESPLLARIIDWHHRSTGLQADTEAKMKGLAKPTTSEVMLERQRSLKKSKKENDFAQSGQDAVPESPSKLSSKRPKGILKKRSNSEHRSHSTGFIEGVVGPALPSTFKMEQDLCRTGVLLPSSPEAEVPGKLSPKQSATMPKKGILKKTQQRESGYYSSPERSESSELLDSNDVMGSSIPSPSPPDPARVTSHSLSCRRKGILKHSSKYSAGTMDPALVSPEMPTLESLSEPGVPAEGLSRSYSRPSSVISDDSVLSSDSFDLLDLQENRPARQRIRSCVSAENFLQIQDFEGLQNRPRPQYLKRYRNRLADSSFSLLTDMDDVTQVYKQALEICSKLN
# Sequence of IRAK4 (human) (Q9NWZ3 whole entry, looked up): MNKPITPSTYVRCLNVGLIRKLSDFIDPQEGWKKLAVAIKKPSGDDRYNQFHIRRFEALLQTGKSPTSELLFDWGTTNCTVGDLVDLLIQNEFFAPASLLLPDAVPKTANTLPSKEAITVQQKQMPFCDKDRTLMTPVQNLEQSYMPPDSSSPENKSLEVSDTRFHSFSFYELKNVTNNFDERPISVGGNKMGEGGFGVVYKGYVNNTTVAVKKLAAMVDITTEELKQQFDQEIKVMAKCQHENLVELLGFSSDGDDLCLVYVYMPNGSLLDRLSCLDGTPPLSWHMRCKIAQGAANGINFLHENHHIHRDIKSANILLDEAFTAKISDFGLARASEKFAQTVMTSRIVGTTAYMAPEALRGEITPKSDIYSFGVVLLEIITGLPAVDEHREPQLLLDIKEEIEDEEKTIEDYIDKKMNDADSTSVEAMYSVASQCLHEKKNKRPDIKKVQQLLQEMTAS
# Sequence of CHEK1 (human) (O14757 whole entry, looked up): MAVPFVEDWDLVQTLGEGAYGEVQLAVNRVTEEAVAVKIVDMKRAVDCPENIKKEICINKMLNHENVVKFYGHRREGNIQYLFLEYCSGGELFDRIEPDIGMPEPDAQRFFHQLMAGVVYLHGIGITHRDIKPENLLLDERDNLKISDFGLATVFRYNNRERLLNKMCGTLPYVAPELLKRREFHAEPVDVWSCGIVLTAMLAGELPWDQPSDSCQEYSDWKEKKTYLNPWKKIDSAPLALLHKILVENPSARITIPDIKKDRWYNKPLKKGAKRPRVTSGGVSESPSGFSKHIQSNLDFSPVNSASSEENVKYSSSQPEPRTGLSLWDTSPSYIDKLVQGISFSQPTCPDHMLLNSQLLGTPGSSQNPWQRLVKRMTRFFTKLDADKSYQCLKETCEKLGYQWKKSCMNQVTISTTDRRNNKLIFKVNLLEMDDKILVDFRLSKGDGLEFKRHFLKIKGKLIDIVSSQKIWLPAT
# Sequence of NTRK2 (human) (Q16620 whole entry, looked up): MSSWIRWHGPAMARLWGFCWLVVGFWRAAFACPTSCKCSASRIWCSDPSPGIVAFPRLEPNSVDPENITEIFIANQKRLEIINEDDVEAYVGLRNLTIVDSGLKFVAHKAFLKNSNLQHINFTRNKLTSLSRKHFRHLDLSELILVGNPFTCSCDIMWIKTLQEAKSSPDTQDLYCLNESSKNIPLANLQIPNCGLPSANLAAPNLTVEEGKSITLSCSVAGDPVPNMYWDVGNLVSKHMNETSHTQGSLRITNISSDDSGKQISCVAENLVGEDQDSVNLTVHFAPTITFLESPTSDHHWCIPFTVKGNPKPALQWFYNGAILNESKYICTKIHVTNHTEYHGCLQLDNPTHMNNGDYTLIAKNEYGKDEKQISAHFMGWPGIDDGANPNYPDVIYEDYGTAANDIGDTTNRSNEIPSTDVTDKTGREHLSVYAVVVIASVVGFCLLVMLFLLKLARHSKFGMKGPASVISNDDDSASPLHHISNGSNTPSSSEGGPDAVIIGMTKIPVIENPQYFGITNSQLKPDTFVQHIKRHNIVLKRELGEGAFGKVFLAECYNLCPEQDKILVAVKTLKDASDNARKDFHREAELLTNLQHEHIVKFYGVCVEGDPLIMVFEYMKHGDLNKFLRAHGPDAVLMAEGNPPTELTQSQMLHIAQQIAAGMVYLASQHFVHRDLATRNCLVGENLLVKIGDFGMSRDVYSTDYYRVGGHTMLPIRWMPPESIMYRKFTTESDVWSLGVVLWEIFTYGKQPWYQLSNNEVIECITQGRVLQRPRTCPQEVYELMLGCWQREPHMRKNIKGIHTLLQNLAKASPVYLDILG
# Sequence of NEK7 (human) (Q8TDX7 whole entry, looked up): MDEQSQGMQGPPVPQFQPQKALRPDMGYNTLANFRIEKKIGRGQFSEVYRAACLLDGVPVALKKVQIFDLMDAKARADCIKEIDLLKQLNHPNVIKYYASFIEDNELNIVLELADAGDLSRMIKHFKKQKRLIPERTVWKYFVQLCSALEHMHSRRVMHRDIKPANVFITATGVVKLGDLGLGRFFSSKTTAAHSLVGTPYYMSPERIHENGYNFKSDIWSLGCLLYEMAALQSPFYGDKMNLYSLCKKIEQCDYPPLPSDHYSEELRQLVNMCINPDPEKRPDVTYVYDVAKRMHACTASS
# Sequence of STK16 (human) (O75716 whole entry, looked up): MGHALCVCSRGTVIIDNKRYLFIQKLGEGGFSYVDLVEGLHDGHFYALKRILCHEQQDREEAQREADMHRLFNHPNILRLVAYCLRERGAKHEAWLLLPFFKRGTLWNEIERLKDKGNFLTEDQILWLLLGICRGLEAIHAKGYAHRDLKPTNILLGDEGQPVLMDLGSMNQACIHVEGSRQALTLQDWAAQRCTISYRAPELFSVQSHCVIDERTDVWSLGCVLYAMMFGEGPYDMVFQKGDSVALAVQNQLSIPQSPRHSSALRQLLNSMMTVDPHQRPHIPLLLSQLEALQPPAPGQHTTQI
structure (smiles),measurement,setting,value
FC(F)(F)c1ccc(/C=C/c2nc(COc3ccc(CCCCn4ccnn4)cc3)co2)cc1,residual activity,[1],93%
same,residual activity,[2],97.1%
same,residual activity,[3],102%
same,residual activity,[4],104%
same,residual activity,[5],104%
same,residual activity,[6],97.7%
same,residual activity,[7],97.9%
same,residual activity,[8],100%
same,residual activity,[9],101%
same,residual activity,[10],103%
same,residual activity,[11],101%
same,residual activity,[12],104%
same,residual activity,[13],96.8%
same,residual activity,[14],96.6%
same,residual activity,[15],99.1%
same,residual activity,[16],105%
same,residual activity,[17],94.6%
same,residual activity,[18],95.9%
same,residual activity,[19],101%
same,residual activity,[20],93.2%
same,residual activity,[21],95.1%
same,residual activity,[22],103%
same,residual activity,[23],101%
same,residual activity,[24],99.6%
same,residual activity,[25],99.6%
same,residual activity,[26],103%
same,residual activity,[27],100%
same,residual activity,[28],98.9%
same,residual activity,[29],103%
same,residual activity,[30],116%
same,residual activity,[31],99.4%
same,residual activity,[32],92.6%
same,residual activity,[33],109%
same,residual activity,[34],103%
same,residual activity,[35],100%
same,residual activity,[36],92.8%
same,residual activity,[37],102%
same,residual activity,[38],108%
same,residual activity,[39],107%
same,residual activity,[40],104%
same,residual activity,[41],99%
same,residual activity,[42],101%
O=C(O)c1ccc2c3c1cccc3c(=O)n1c3ccccc3nc21,residual activity,[1],46.9%
same,residual activity,[2],97.5%
same,residual activity,[3],98.4%
same,residual activity,[4],103%
same,residual activity,[5],106%
same,residual activity,[6],107%
same,residual activity,[7],88.4%
same,residual activity,[8],103%
same,residual activity,[9],57.2%
same,residual activity,[10],103%
same,residual activity,[11],82.8%
same,residual activity,[12],91.4%
same,residual activity,[13],106%
same,residual activity,[14],101%
same,residual activity,[15],23.7%
same,residual activity,[16],64.4%
same,residual activity,[17],105%
same,residual activity,[18],106%
same,residual activity,[19],99.4%
same,residual activity,[20],86.2%
same,residual activity,[21],43.4%
same,residual activity,[22],102%
same,residual activity,[23],89.3%
same,residual activity,[24],90.4%
same,residual activity,[25],93.9%
same,residual activity,[26],41.3%
same,residual activity,[27],106%
same,residual activity,[28],86.7%
same,residual activity,[29],105%
same,residual activity,[30],41.7%
same,residual activity,[31],88%
same,residual activity,[32],98.9%
same,residual activity,[33],93.6%
same,residual activity,[34],99%
same,residual activity,[35],100%
same,residual activity,[36],93.5%
same,residual activity,[37],59.5%
same,residual activity,[38],101%
same,residual activity,[39],91.9%
same,residual activity,[40],106%
same,residual activity,[41],97.6%
same,residual activity,[42],96.1%
